Laboratory results reported in patent publication EP1752149A1 (LABORATORIOS DEL DR. ESTEVE, S.A., priority 2005, dated 2007).
Values belong to the compound of their own block, whether it stands above or below them.

Experiments:
[1] = system: cyclooxygenase-2 (COX-LUC); test: COX2-LUC promoter luciferase reporter in Jurkat T cells; format: cell-based, human; details: Jurkat (PMA+Ion); for IC50: Homo sapiens, approximated value, read-out: COX2-LUC IC-50
Description: (§1) It was also analyzed how these compounds affect transcriptional induction mediated by the transcription factors Nuclear factor of activated T cells (NFAT) or Nuclear factor (NF)-κB. In these experiments, Jurkat T cells or THP-1 cells were transiently transfected by the Lipofectamine2000 reagent (Invitrogen), with luciferase reporter constructs whose expression are directed by three copies of the Interleukin-2 (IL-2) NFAT responsive element (NFAT-LUC) or by three copies of an NF-κB responsive element (NF-κB-LUC). Cells were treated with increased doses of the compound according to example 1 in the presence or absence of stimulation with the phorbol ester PMA (15 ng/ml) plus the A23187 calcium ionophore (1µM) for 6 hours in Jurkat cells or with LPS (5 µg/ml) for 18 hours in THP-1 cells and luciferase activity was measured in cell lysates. Results obtained are represented as percentage of activation, considering 100% the value of luciferase activity obtained in stimulated cells in the absence of the compound according to example 1. The approximate IC-50 (µM) values for the inhibition of the transcriptional activation of NFAT and NF-κB are also shown (Table 2).
(§2) The compound according to example 1 was measured for its ability to regulate gene transcription in immune activation through the modulation of the transcriptional activity of luciferase reporter constructs whose expression is directed by the promoter region of genes involved in the inflammation process and immune activation, such as cyclooxygenase-2 (COX-LUC), tumor necrosis factor α (TNF-LUC), Interleukin-2 (IL-2-LUC), Interleukin-6 (IL-6-LUC) and the inducible Nitric Oxide Synthase (iNOS-LUC). Jurkat T cells or THP-1 cells were transiently transfected with these constructs as described above, and treated with different doses of The compound according to example 1 in the presence or absence of stimulation with PMA plus Ion (Jurkat) or LPS in a similar way as for NFAT-LUC and NFKB-LUC reporter analysis. Results are represented as percentage of activation, considering 100% the value of luciferase activity obtained in stimulated cells in the absence of the compound according to example 1. Approximated IC50 (µM) values obtained for inhibition of the transcriptional activation are summarized in tables 3 (Jurkat) and 4 (THP-1).

[2] = system: tumor necrosis factor α (TNF-LUC); test: TNF-LUC promoter luciferase reporter in THP-1 cells; format: cell-based, human; details: THP-1 (LPS); for IC50: Homo sapiens, approximated value, read-out: TNF-LUC IC-50
Description: as §1, §2

Nuclear factor (NF)-κB [3] = test: NF-κB-LUC luciferase reporter, transcriptional activation in THP-1 cells; format: cell-based, human; details: THP-1 (LPS), 18 hours; for IC50: Homo sapiens, approximate value, read-out: NF-κB-LUC IC-50
Description: as §1

Interleukin-6 (IL-6-LUC) = test: IL-6-LUC promoter luciferase reporter in Jurkat T cells; format: cell-based, human; details: Jurkat (PMA+Ion); for IC50: Homo sapiens, approximated value, read-out: IL-6-LUC IC-50
Description: as §1, §2

[4] = system: inducible Nitric Oxide Synthase (iNOS-LUC); test: iNOS-LUC promoter luciferase reporter in THP-1 cells; format: cell-based, human; details: THP-1 (LPS); for IC50: Homo sapiens, approximated value, read-out: iNOS-LUC IC-50
Description: as §1, §2

Interleukin-2 (IL-2-LUC) = test: IL-2-LUC promoter luciferase reporter in Jurkat T cells; format: cell-based, human; details: Jurkat (PMA+Ion); for IC50: Homo sapiens, approximated value, read-out: IL-2-LUC IC-50
Description: as §1, §2

[5] = system: cyclooxygenase-2 (COX-LUC); test: COX2-LUC promoter luciferase reporter in THP-1 cells; format: cell-based, human; details: THP-1 (LPS); for IC50: Homo sapiens, approximated value, read-out: COX2-LUC IC-50
Description: as §1, §2

TNFα = test: Inhibition of cytokine production: TNFα secretion by Jurkat T cells, ELISA; format: cell-based, human; details: Jurkat (PMA+Ion), 24 hours; for IC50: Homo sapiens, approximated value, read-out: TNF IC-50 (µM), inhibition of the cytokine production
Description: (§3) In addition to the transcriptional assays, we have also determined the effects of the compound according to example 1 in the secretion of TNFα and IL-2 to the culture medium. Jurkat T cells were treated with different doses of the compound according to example 1 in the presence or absence of stimulation with PMA plus Ion for 24 hours. Supematants were collected and cytokines were measured by specific ELISA for each cytokine (Bender MedSystems). Results are represented as percentage of cytokine production, considering 100% the maximal levels of cytokine production (pg/ml) obtained in PMA+lon stimulated Jurkat cells in the absence of the compound according to example 1.

Nuclear factor (NF)-κB [6] = test: NF-κB-LUC luciferase reporter, transcriptional activation in Jurkat T cells; format: cell-based, human; details: Jurkat (PMA+Ion), 6 hours; for IC50: Homo sapiens, approximate value, read-out: NF-κB -LUC IC-50
Description: as §1

IL-2 = test: Inhibition of cytokine production: IL-2 secretion by Jurkat T cells, ELISA; format: cell-based, human; details: Jurkat (PMA+Ion), 24 hours; for IC50: Homo sapiens, approximated value, read-out: IL-2 IC-50 (µM), inhibition of the cytokine production
Description: as §3

[7] = system: Nuclear factor of activated T cells (NFAT); test: NFAT-LUC luciferase reporter, transcriptional activation in Jurkat T cells; format: cell-based, human; details: Jurkat (PMA+Ion), 6 hours; for IC50: Homo sapiens, approximate value, read-out: NFAT-LUC IC-50
Description: as §1

[8] = system: tumor necrosis factor α (TNF-LUC); test: TNF-LUC promoter luciferase reporter in Jurkat T cells; format: cell-based, human; details: Jurkat (PMA+Ion); for IC50: Homo sapiens, approximated value, read-out: TNF-LUC IC-50
Description: as §1, §2

[9] = In-vivo bioassay system for determination of cannabinoid activity (hot-plate test, hypothermia, catalepsy, sedation); details: for Agonistic effect A: Hot-Plate test / Agonistic effect B: Hypothermia / Agonistic effect C: Catalepsy / Agonistic effect D: Sedation: 5 mg/kg i.v.
[10] = Cell viability, tetrazolium salt WST-1, unstimulated Jurkat cells; format: cell-based; details: human, Jurkat (Cont), read-out: percentage of viability
Description: (§4) The viability of the cells was measured by the use of the tetrazolium salt WST-1 (Roche Molecular Biochemicals). Unstimulated Jurkat cells or LPS (5 µg/ml) treated THP-1 cells were incubated for 24 or 18 hours respectively in the presence of increasing doses of the compound according to example 1 (1, 10, 100, 1000 and 10000 nM) and incubated with 10% of WST-1 reagent for 1 hour. Quantification of the formazan dye produced by metabolically active cells was spectrophotometrically measured at 450 nm and a reference wavelength of 630 nm. Data are represented as percentage of viability considering 100% the value of absorbance obtained in the absence of example 1 (Table 1).

[11] = Cell viability, tetrazolium salt WST-1, LPS treated THP-1 cells; format: cell-based; details: human, THP-1 (LPS 5 µg/ml), read-out: percentage of viability
Description: as §4

[12] = 5 mg/kg i.v. prior to Win 55212-2 in a dose of 1,25mg/kg i.v.

- IC50 [1]: > 10000 nM
- IC50 (Nuclear factor (NF)-κB [3]): 5000 nM
- IC50 (Interleukin-6 (IL-6-LUC)): 1000 nM
- IC50 [4]: 3000 nM
- IC50 (Interleukin-2 (IL-2-LUC)): 100 nM
- IC50 [5]: 6000 nM
- IC50 (TNFα): 6 µM
- IC50 (Nuclear factor (NF)-κB [6]): 1000 nM
- IC50 (IL-2): 7 µM
- IC50 [7]: 200 nM
SMILES: Cc1c(C(=O)NN2CCCCC2)nn(-c2ccc(Cl)cc2Cl)c1-c1ccc(Cl)cc1 [SR141716, reference compound]
- IC50 [2]: 3000 nM
- IC50 [8]: 10 nM

SMILES: O=C(C1=NN(c2ccc(Cl)cc2Cl)C(c2ccc(Cl)cc2)C1)N1CCCCC1 (stereo not shown) [Example 5, [5-(4-Chloro-phenyl)-1-(2,4-dichloro-phenyl)-4,5-dihydro-1H-pyrazol-3-yl]-piperidin-1-yl-methanone]
- Agonistic effect A: Hot-Plate test [9]: 0
- Agonistic effect B: Hypothermia [9]: 50
- Agonistic effect C: Catalepsy [9]: 0
- Agonistic effect D: Sedation [9]: 0
- Antagonistic Effect A: Hot-Plate test [9, 12]: 50
- Antagonistic Effect B: Hypothermia [9, 12]: 40
- Antagonistic Effect C: Catalepsy [9, 12]: 20
- Antagonistic Effect D: Sedation [9, 12]: 20

SMILES: O=C(NN1CCCCC1)C1=NN(c2ccc(Cl)cc2Cl)C(c2ccc(Cl)cc2)C1 (stereo not shown) [Example 1, N-piperidinyl-5-(4-chlorophenyl)-1-(2,4-dichlorophenyl)-4,5-dihydro-1H-pyrazole-3-carboxamide]
- IC50 [1]: 8000 nM
- COX2-LUC percentage of activation ([1]; 0.01 µM): 102.7%
- COX2-LUC percentage of activation ([1]; 1 µM): 93.2%
- COX2-LUC percentage of activation ([1]; 10 µM): 31.5%
- viability at 24 h, 0.01 µM ([10]; 10 nM): 92.6%
- viability at 24 h, 0.1 µM ([10]; 100 nM): 95.4%
- viability at 24 h, 1 µM ([10]; 1000 nM): 96.3%
- viability at 24 h, 10 µM ([10]; 10000 nM): 97.7%
- IC50 [2]: 3000 nM
- TNF-LUC percentage of activation ([2]; 0.01 µM): 104.4%
- TNF-LUC percentage of activation ([2]; 1 µM): 65.4%
- TNF-LUC percentage of activation ([2]; 10 µM): 12.7%
- IC50 (Nuclear factor (NF)-κB [3]): 6000 nM
- NF-κB-LUC percentage of activation (Nuclear factor (NF)-κB [3]; 0.01 µM): 100.4%
- NF-κB-LUC percentage of activation (Nuclear factor (NF)-κB [3]; 1 µM): 104.6%
- NF-κB-LUC percentage of activation (Nuclear factor (NF)-κB [3]; 10 µM): 3.4%
- IC50 (Interleukin-6 (IL-6-LUC)): 4000 nM
- IL-6-LUC percentage of activation (Interleukin-6 (IL-6-LUC); 0.01 µM): 82.3%
- IL-6-LUC percentage of activation (Interleukin-6 (IL-6-LUC); 1 µM): 61.8%
- IL-6-LUC percentage of activation (Interleukin-6 (IL-6-LUC); 10 µM): 18.6%
- IC50 [4]: 4000 nM
- iNOS-LUC percentage of activation ([4]; 0.01 µM): 89.5%
- iNOS-LUC percentage of activation ([4]; 1 µM): 71.3%
- iNOS-LUC percentage of activation ([4]; 10 µM): 13.2%
- IC50 (Interleukin-2 (IL-2-LUC)): 1000 nM
- IL-2-LUC percentage of activation (Interleukin-2 (IL-2-LUC); 0.01 µM): 85.9%
- IL-2-LUC percentage of activation (Interleukin-2 (IL-2-LUC); 1 µM): 49.0%
- IL-2-LUC percentage of activation (Interleukin-2 (IL-2-LUC); 10 µM): 9.9%
- viability at 18 h, 0.01 µM ([11]; 10 nM): 105%
- viability at 18 h, 1 µM ([11]; 1000 nM): 110%
- viability at 18 h, 10 µM ([11]; 10000 nM): 80.2%
- IC50 [5]: 2000 nM
- COX2-LUC percentage of activation ([5]; 0.01 µM): 102.7%
- COX2-LUC percentage of activation ([5]; 1 µM): 59.6%
- COX2-LUC percentage of activation ([5]; 10 µM): 6.8%
- IC50 (TNFα): 5 µM
- TNF percentage of cytokine production (TNFα; 0.01 µM): 79.5%
- TNF percentage of cytokine production (TNFα; 1 µM): 80.3%
- TNF percentage of cytokine production (TNFα; 10 µM): 11.5%
- IC50 (Nuclear factor (NF)-κB [6]): 7000 nM
- NF-κB-LUC percentage of activation (Nuclear factor (NF)-κB [6]; 0.01 µM): 94.7%
- NF-κB-LUC percentage of activation (Nuclear factor (NF)-κB [6]; 1 µM): 74.4%
- NF-κB-LUC percentage of activation (Nuclear factor (NF)-κB [6]; 10 µM): 39.3%
- IC50 (IL-2): 6 µM
- IL-2 percentage of cytokine production (IL-2; 0.01 µM): 97.5%
- IL-2 percentage of cytokine production (IL-2; 1 µM): 98.7%
- IL-2 percentage of cytokine production (IL-2; 10 µM): 13.2%
- IC50 [7]: 3000 nM
- NFAT-LUC percentage of activation ([7]; 0.01 µM): 72.4%
- NFAT-LUC percentage of activation ([7]; 1 µM): 56.8%
- NFAT-LUC percentage of activation ([7]; 10 µM): 7.4%
- Agonistic effect A: Hot-Plate test [9]: 0
- Agonistic effect B: Hypothermia [9]: 0
- Agonistic effect C: Catalepsy [9]: 0
- Agonistic effect D: Sedation [9]: 0
- Antagonistic Effect B: Hypothermia [9, 12]: 100
- Antagonistic Effect C: Catalepsy [9, 12]: 100
- Antagonistic Effect D: Sedation [9, 12]: 100
- IC50 [8]: 100 nM
- TNF-LUC percentage of activation ([8]; 0.01 µM): 59.5%
- TNF-LUC percentage of activation ([8]; 1 µM): 29.9%
- TNF-LUC percentage of activation ([8]; 10 µM): 13.7%
